# Patent US20220332758A1, “PEPTIDE-BASED COMPOSITIONS AND METHODS FOR TREATING ALZHEIMER'S DISEASE” (Board of Regents, The Universityof Texas System, priority 2019, published 2022)
# Entries after “also recorded” stand apart in the source; their conditions may differ.
# Key:
# hAPP(J20) mice = assay: Novel object recognition assay in hAPP(J20) mice; type: in vivo, mouse; settings: 14 days IP injection, 1 mg/kg, listed as Tat-TOD
# Procedure: Novel object recognition test. To measure recognition of a previously encountered object, animals are placed in an opacified rat cage with bedding for 10 min. The following (training) day, mice are returned to the chamber, which now contains two identical objects, and allowed to explore the arena for 5 minutes. Percent of time exploring each object is recorded using TopScan. During testing (4 hours after training) one of the objects in the box is replaced with a new object and the side of the replaced object randomized amongst animals. Mice are given 5 mins to explore the two objects, and percent time exploring each object is recorded using TopScan. A discrimination ratio calculated as (tnovel−tfamiliar)/(tnovel+tfamiliar) is used as a measure of retention of the priorly encountered object (positive and negative discrimination ratio values indicate a preference for exploration of the novel and familiar objects, respectively).
# The compounds were tested as follows: in neuroblast MC65 cell culture model with overexpressed C99 fragment of amyloid precursor protein (APP) upon tetracycline withdrawal or with external APP added; and in fruit fly (D. melanogaster) model of AD with overexpressed APP and BACE1. The compounds (1 μM) were mixed with food. Flies were trained to recognize “positive” and “negative” odors (olfaction aversion). […]
# MC65 cells = assay: Cell death in MC65 AD cell model under tetracycline withdrawal (WST-1 viability); type: cell-based, human
# Procedure: Cell culture. Cells were cultured in EMEM (SK-N-SH), DMEM (MC65) supplemented with 10% heat-inactivated fetal bovine serum and antibiotics (100 U mL^−1 penicillin, 100 μg mL^−1 streptomycin, and 0.25 μg mL^−1 of amphotericin B; Gibco-Invitrogen). Incubators were maintained at 5% CO2, and 37° C. Medium was replaced every 3-4days. For most experiments, cells were seeded at 100,000 cells mL^−1 in either 6-well or 96 well plates 24 h prior to assay. In most cases, media was replaced with serum free optimem media 24 h prior to assay.
# Cell viability. Cell maintained in a clear 96 well plate. On the day of assay, 10 μl of WST-1 reagent (11644807001, Sigma Aldrich) was added to each well and cells incubated in a 37° C. 5% CO2 incubator for 2-4 hours. Absorbance was measured at 450 nm using a gemini series spectrophotometer.
# The compounds were tested as follows: in neuroblast MC65 cell culture model with overexpressed C99 fragment of amyloid precursor protein (APP) upon tetracycline withdrawal or with external APP added; and in fruit fly (D. melanogaster) model of AD with overexpressed APP and BACE1. The compounds (1 μM) were mixed with food. Flies were trained to recognize “positive” and “negative” odors (olfaction aversion). The compounds were also treated in hAPP (J20) mice which overexpress a familial variant of APP. The compounds were injected for 14 days (1 mg/kg). […]
# [1] = target: T1, proteasome activity in W^1118 flies (Drosophila melanogaster, UniProt P40301+Q9XZJ4); assay: Proteasome activity in flies fed the compounds; type: in vivo; settings: fed for 10 days
# T1 construct: from tissue
# T1 sequence (Q9XZJ4 whole entry): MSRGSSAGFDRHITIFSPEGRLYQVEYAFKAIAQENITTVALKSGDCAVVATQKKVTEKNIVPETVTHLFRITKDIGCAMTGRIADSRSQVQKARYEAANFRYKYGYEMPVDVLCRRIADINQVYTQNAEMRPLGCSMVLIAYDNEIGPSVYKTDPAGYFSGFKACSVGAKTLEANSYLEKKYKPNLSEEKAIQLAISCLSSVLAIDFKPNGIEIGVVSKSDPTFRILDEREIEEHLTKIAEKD
# T1 sequence (P40301 whole entry): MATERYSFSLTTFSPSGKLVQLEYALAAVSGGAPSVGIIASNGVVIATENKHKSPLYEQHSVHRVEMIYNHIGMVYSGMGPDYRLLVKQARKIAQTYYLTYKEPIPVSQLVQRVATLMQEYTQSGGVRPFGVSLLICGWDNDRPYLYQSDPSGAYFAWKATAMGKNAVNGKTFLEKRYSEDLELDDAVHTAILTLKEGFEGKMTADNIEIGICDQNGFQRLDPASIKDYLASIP
# Procedure: Fly Lines and Strain Maintenance. UAS-ProsBeta5 (Staudt, N. et al. PLoS Genet 1, e55, doi:10.1371/journal.pgen.0010055 (2005)) and Elav-GS-GAL4; UAS-hAPP; UAS-hBACE1 (56756) stocks were obtained from the Bloomington Drosophila Stock Center (NIH P40OD018537). The lines were maintained on agar-cornmeal-dextrose-yeast growth media (Ren, C., Finkel, S. E. & Tower, J. Exp Gerontol 44, 228-235, doi:10.1016/j.exger.2008.10.002 (2009)) in a humidified 24° C. incubator with 12:12-hour light:dark cycle. The crosses were set up with female virgins of the respective GAL4 driver line and male UAS-ProsBeta5 or W^1118 flies. Progeny were collected within 48 hours of eclosion and allowed to mate on 10% sugar/yeast (SY10) media (Skorupa, D. A., et al. Aging Cell 7, 478-490, doi:10.1111/j.1474-9726.2008.00400.x (2008)) for another 48 hours. After this period, females were separated and sorted into sets of 25 flies per vial containing SY10 media supplemented either with 400 μM mifepristone (RU486) or ethanol vehicle, mixed directly into the food. 8 μM Blue Dye #1 was added to food containing RU486 for the purpose of identification. Carbon dioxide was used to briefly anesthetize flies for sorting. Flies were moved to vials of fresh media every two to three days.
# Plate-based proteasome activity assay. […]
# [2] = target: T2, proteasome ChT-L activity in SK-N-SH (ATCC HTB-11) cells (Homo sapiens, UniProt P25787+P60900); assay: ChT-L proteasome activity in lysates of SK-N-SH cells treated with TAT peptides; type: cell-based; settings: for proteasome ChT-L activity in lysates from treated cells vs control lysates: 1 μM, 24 h
# T2 construct: host or cells: SK-N-SH human neuroblastoma cells
# Procedure: Cell Culture. Human SK-N-SH neuroblastoma cell line (ATCC® HTB-11™ American Type Culture Collection; Manassas, Va.) were cultured according to ATCC specifications (EMEM, 10% heat-inactivated FBS) The cells at passage 2-4 were treated with 1 μM TAT peptides or the DMSO vehicle diluted with the medium 1: 1000, for 24 h. The content of live cells was determined by the Trypan Blue-exclusion assay. The cells were harvested, washed twice in PBS, resuspended in dilution buffer (as described herein) and stored in −80° C. To prepare lysates, the thawed preparations were vortexed with glass beads and centrifuged for 5 min 5,000×g (4° C.). The supernatant was centrifuged for 20 min 14,000×g (4° C.). The resulting supernatant—“crude lysate” was diluted to 1 mg/mL of total protein with dilution buffer. 1 μg of lysate per assay (reaction buffer: 50 mM Tris/HCl pH 8, 0.1 mM MgCl2, 0.2 mM ATP, 0.1 mM dithiothreitol, 50 μM Suc-LLVY-AMC (SEQ ID NO: 14)) was used for determination of ChT-L activity in a 96-well format, as above.
# [3] = test system: Elav-gs-GAL4>UAS-APP; UAS-BACE1 flies; assay: Olfaction aversion training in fly AD model; type: in vivo, Drosophila melanogaster; settings: 1 μM mixed into food, 10 days
# Procedure: Olfactory aversion training. Experiments were performed broadly (Malik, B. R. & Hodge, J. J. J Vis Exp, e50107, doi:10.3791/50107 (2014)). Animals were exposed (via an air pump) in alternation to two neutral odors (3-octanol and 4-methylcyclohexanol, prepared as a 1/10 dilution in mineral oil) for 5 minutes under low red-light and a 100V 60 Hz shock was applied during exposure to one of the two odors. The odor associated with the electric shock was alternated between vials. After three training rounds per odor, animals were given one hour to recover then placed in a T-maze (Celexplorer labs) with opposing odors from either side. Flies were allowed two minutes to explore the maze after which the maze sections were sealed and the number of flies in each chamber scored.
# The compounds were tested as follows: in neuroblast MC65 cell culture model with overexpressed C99 fragment of amyloid precursor protein (APP) upon tetracycline withdrawal or with external APP added; and in fruit fly (D. melanogaster) model of AD with overexpressed APP and BACE1. The compounds (1 μM) were mixed with food. Flies were trained to recognize “positive” and “negative” odors (olfaction aversion). The compounds were also treated in hAPP (J20) mice which overexpress a familial variant of APP. The compounds were injected for 14 days (1 mg/kg). Novel Object Recognition assay was used to test learning and memory.
# [4] = test system: elav-GS-Gal4>UAS-APP, UAS-Bace1 flies; assay: Spontaneous activity in fly AD model; type: in vivo, Drosophila melanogaster; settings: 1 μM in food
# Procedure: Spontaneous activity and circadian rhythm. Spontaneous activity was monitored using a Trikinetic activity monitor, in which vials containing 20-25 flies were secured and activity recorded in a humidified 24° C. incubator with 12:12-hour light:dark cycles as described herein. Flies were allowed to acclimate for 8 hours prior to data collection. Activity was averaged for each twelve-hour cycle and normalized per fly.
Compound,"learning and memory, novel object recognition (hAPP(J20) mice)",survival of neuroblasts overexpressing APP (MC65 cells; 1 μM),"cell death under tetracycline withdrawal (MC65 cells; MC65, WST1 viability assay)",proteasome activity in flies [1],proteasome ChT-L activity in lysates from treated cells vs control lysates [2],"dose and time dependence of proteasome activation in cells ([2]; 0.5 or 1.0 μM, four or 24 h)",olfaction aversion training performance [3],spontaneous activity [4]
"N=C(N)NCCCC(NC(=O)CN)C(=O)NC(CCCCN)C(=O)NC(CCCCN)C(=O)NC(CCCNC(=N)N)C(=O)NC(CCCNC(=N)N)C(=O)NC(CCC(N)=O)C(=O)N1Cc2ccccc2C[C@H]1C(=O)N1C(C(=O)NC(CCCNC(N)N)C(=O)N2CCCC2C(=O)NC(CO)C(=O)O)CC2CCCCC21 (stereo partly drawn) [(5), GRKKRRQ-TOD-RPS]",efficiently explore their surroundings to recognize novel objects; also recorded: significantly enhances learning and memory,improves survival,significantly reduces cell death,enhance proteasome activity when fed to flies,significantly higher than activity in control lysates,substantially stronger after 4 h exposure than after 24 h,Improved performance in olfaction aversion training,increased spontaneous activity
NCCCCC(N)C(=O)NC(CCCCN)C(=O)NC(CCCCN)C(=O)Nc1cc(NC(=O)C(CCCCN)NC(=O)C(CCCCN)NC(=O)C(N)CCCCN)cc(C(=O)NC(CCCCN)C(=O)NC(CCCCN)C(=O)NC(CCCCN)C(=O)O)c1 (stereo not drawn) [(8)],,,,enhance proteasome activity when fed to flies,significantly higher than activity in control lysates,,Improved performance in olfaction aversion training,increased spontaneous activity
